The source of these data is patent US20220370453A1 (Storm Therapeutics Ltd, priority 2019, published 2022).

Assay [1] concerns the target T1, BCDIN3D (Homo sapiens, UniProt Q7Z5W3).
T1 sequence (Q7Z5W3 1-292): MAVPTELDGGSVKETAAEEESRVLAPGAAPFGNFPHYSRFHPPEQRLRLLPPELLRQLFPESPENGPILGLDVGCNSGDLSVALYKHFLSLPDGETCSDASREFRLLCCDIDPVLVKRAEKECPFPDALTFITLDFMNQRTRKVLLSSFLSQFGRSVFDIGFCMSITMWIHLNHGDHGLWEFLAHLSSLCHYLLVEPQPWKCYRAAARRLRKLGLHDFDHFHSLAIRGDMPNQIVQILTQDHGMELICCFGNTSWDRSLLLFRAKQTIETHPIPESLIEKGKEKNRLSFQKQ
Kind of assay: BCDIN3D IC50 RFMS (RapidFire) assay with mini-helix. It is filed as biochemical. As to conditions: mini-helix 0.2 μM and SAM 6 μM as substrates, 25 nM enzyme, 1 hr at 37° C. The procedure: The following General Methods details the assay conditions for the Biological assays.
BCDIN3D IC50 RFMS Assay with Mini-Helix
The enzymatic assay was performed in a 384-well polypropylene plate in assay buffer with 25 mM Tris pH 8.0, 10 mM DTT, 1 mM EDTA, 0.03% BSA in a final assay volume of 20 μL. The enzyme with a final concentration of 25 nM was pre-incubated with the respective compound at 1% DMSO final assay concentration over 10 min at room temperature. The reaction was initiated by addition of 0.2 μM final assay concentration of mini-helix and 6 μM final concentration of SAM as substrates. After a 1 hr incubation at 37° C., the reaction was terminated with 40 μL of stop solution of 7.5% trichloroactetic acid in water containing 112.5 nM D4-SAH and 30 nM ^13C10-SAH used as internal standards. The SAH product concentrations as well as both internal standards were analyzed by a RapidFire High Throughput Mass Spectrometry System (Agilent Technologies, Santa Clara, Calif.) using an AP14000 triple quadrupole mass spectrometer (AB Sciex Framingham, Mass.).

The target in assay [2] is T1, BCDIN3D. Kind of assay: BCDIN3D InCellPulse thermal stability assay in transfected A549 cells. It counts as cell-based. To be noted: A549 cells transiently transfected with ePL-BCDIN3D, 1 h pre-incubation, heat shock 58° C. 15 min. The procedure: BCDIN3D InCellPulse™ Assay
The thermal stability assay was performed with lipofectamine 3000 transiently transfected A549 using the plasmid pICP-ePL-BCDIN3 Da. This plasmid encodes for BCDIN3D N-terminally fused to a Prolabel (ePL), complementing a split β-Galactosidase Enzyme System InCELL Pulse Technology (InCELL Hunter Detection Kit, DiscoverX/Eurofins, cat: 96-0079L). 20 μl A549 cells (1500 cell/well) were added with a multidrop device to compounds to a final DMSO concentration of 0.6% in 384-well polypropylene plate format in IMDM medium and pre-incubated with the compounds for 1 h at 37° C. and 5% CO2. Subsequently, a heat shock was applied to the entire sealed plate in a 58° C. water bath for 15 min. The plates were cooled to RT, spun down and 25 μl/well of EA Detection Solution at 3.3× (InCELL Hunter Detection Kit) was added per well. 21 μl of the mixture was added to a black 384-well measurement plate (Corning, PS, black, Flat Bottom, #3575), mix for 30 minutes on a plate shaker at RT. Finally, the luminescence was measured with a Perkin Elmer EnVision with 0.2 s measurement time in luminescence mode.

`CNc1nc(NC[C@@](C)(N)c2ccccc2)nc2c1cnn2C` (single isomer, unassigned) [Compound 7.10]: the values for the IC50 in assay [1] and in assay [2] were 7.65 µM and 10.8 µM, respectively.

Regarding `Cn1ncc2c(Nc3ccc(C(F)(F)F)nc3)nc(NC[C@](C)(N)c3ccccc3)nc21` (single isomer, unassigned) [Compound 7.13], the IC50 in assay [1] was determined as 2.62 µM; in assay [2], 6 µM.

On to `Cn1ncc2c(Nc3ccc(C(F)(F)F)nc3)nc(NCC(C)(N)c3ccccc3)nc21` (single isomer, unassigned) [Compound 7.15], for which the IC50 in assay [1] came to 0.0381 µM; in assay [2], 0.133 µM.

For the compound `[2H]C([2H])([2H])n1ncc2c(NC(C)(C)C)nc(NCC(N)c3ccccc3F)nc21` (stereo in doubt) [Compound 7.17, N6-[(2S)-2-amino-2-(2-fluorophenyl)ethyl]-N4-tert-butyl-1-(trideuteriomethyl)pyrazolo[3,4-d]pyrimidine-4,6-diamine], the IC50 was determined as 0.981 µM in assay [1] and 2.14 µM in assay [2].

With `Cn1ncc2c(Nc3ccc(C(F)(F)F)cc3)nc(NCCN)nc21` [Compound 1.01, N6-(2-Aminoethyl)-1-methyl-N4-[4-(trifluoromethyl)phenyl]pyrazolo[3,4-d]pyrimidine-4,6-diamine], the figures for the IC50 in assay [1] and in assay [2] were 1.98 µM and 3.33 µM, respectively.

Regarding `Cn1ncc2c(Nc3ccc(Oc4ccccc4)cc3)nc(NCCN)nc21` [Compound 1.03, N6-(2-aminoethyl)-1-methyl-N4-(4-phenoxyphenyl)-1H-pyrazolo[3,4-d]pyrimidine-4,6-diamine], the values for the IC50 in assay [1] and in assay [2] were 0.975 µM and 0.918 µM, respectively.

For `Cn1ncc2c(Nc3cccc(Oc4ccccc4)c3)nc(NCCN)nc21` [Compound 1.04, N6-(2-aminoethyl)-1-methyl-N4-(3-phenoxyphenyl)-1H-pyrazolo[3,4-d]pyrimidine-4,6-diamine], the IC50 in assay [1] worked out at 1.26 µM; in assay [2], 1.53 µM.

Take `Cn1ncc2c(NCc3ccc(-c4ccccc4)cc3)nc(NCCN)nc21` [Compound 1.05, N6-(2-aminoethyl)-1-methyl-N4-[(4-phenylphenyl)methyl]pyrazolo[3,4-d]pyrimidine-4,6-diamine]: the IC50 turned out to be 2.21 µM in assay [1] and 2.97 µM in assay [2].

Consider `COc1ccc(C(C)Nc2nc(NCCN)nc3c2cnn3C)cc1Cl` (centres unmarked) [Compound 1.06, N6-(2-aminoethyl)-N4-[1-(3-chloro-4-methoxyphenyl)ethyl]-1-methyl-1H-pyrazolo[3,4-d]pyrimidine-4,6-diamine], for which the IC50 stood at 1.68 µM in assay [1] and 2.93 µM in assay [2].

On to `COc1cccc(-c2cccc(Nc3nc(NCCN)nc4c3cnn4C)c2)c1` [Compound 1.11, N6-(2-aminoethyl)-N4-{3′-methoxy-[1,1′-biphenyl]-3-yl}-1-methyl-1H-pyrazolo[3,4-d]pyrimidine-4,6-diamine], for which the IC50 was determined as 0.762 µM in assay [1] and 1.06 µM in assay [2].

Take `COc1cccc(-c2ccc(Nc3nc(NCCN)nc4c3cnn4C)cc2)c1` [Compound 1.14, N6-(2-aminoethyl)-N4-{3′-methoxy-[1,1′-biphenyl]-4-yl}-1-methyl-1H-pyrazolo[3,4-d]pyrimidine-4,6-diamine]: the IC50 in assay [1] worked out at 0.568 µM; in assay [2], 0.754 µM.

As for `COc1ccc(-c2cccc(Nc3nc(NCCN)nc4c3cnn4C)c2)cc1` [Compound 1.15, N6-(2-aminoethyl)-N4-{4′-methoxy-[1,1′-biphenyl]-3-yl}-1-methyl-1H-pyrazolo[3,4-d]pyrimidine-4,6-diamine], the half-inhibitory concentration (IC50) is 0.541 µM in assay [1] and 1.02 µM in assay [2].

On to `Cn1ncc2c(Nc3cccc(-c4ccccc4)c3)nc(NCCN)nc21` [Compound 1.16, N6-(2-aminoethyl)-N4-{[1,1′-biphenyl]-3-yl}-1-methyl-1H-pyrazolo[3,4-d]pyrimidine-4,6-diamine], for which the figures for the IC50 in assay [1] and in assay [2] were 0.744 µM and 1.7 µM, respectively.

Turning to `COc1ccc(Nc2nc(NCCN)nc3c2cnn3C)cc1Cl` [Compound 1.21, N6-(2-aminoethyl)-N4-(3-chloro-4-methoxyphenyl)-1-methyl-1H-pyrazolo[3,4-d]pyrimidine-4,6-diamine], the IC50 was 1.15 µM in assay [1] and 8.07 µM in assay [2].

Regarding `Cn1ncc2c(NCc3cccc(C(F)(F)F)c3)nc(NCCN)nc21` [Compound 1.23, N6-(2-aminoethyl)-1-methyl-N4-{[3-(trifluoromethyl)phenyl]methyl}-1H-pyrazolo[3,4-d]pyrimidine-4,6-diamine], the IC50 in assay [1] is 7.72 µM; in assay [2], 8.47 µM.

As for `COc1ccc(CNc2nc(NCCN)nc3c2cnn3C)c(OC)c1` [Compound 1.24, N6-(2-aminoethyl)-N4-[(2,4-dimethoxyphenyl)methyl]-1-methyl-1H-pyrazolo[3,4-d]pyrimidine-4,6-diamine], the results for the half-maximal inhibitory concentration (IC50) in assay [1] and in assay [2] were 2.25 µM and 10.6 µM, respectively.

In the case of `COc1ccc(CNc2nc(NCCN)nc3c2cnn3C)cc1Cl` [Compound 1.25, N6-(2-aminoethyl)-N4-[(3-chloro-4-methoxyphenyl)methyl]-1methyl-1H-pyrazolo[3,4-d]pyrimidine-4,6-diamine], the IC50 in assay [1] worked out at 1.66 µM; in assay [2], 7.72 µM.

For the compound `COc1ccc(CNc2nc(NCC(C)(C)N)nc3c2cnn3C)cc1Cl` [Compound 1.26, N6-(2-amino-2-methylpropyl)-N4-[(3-chloro-4-methoxyphenyl)methyl]-1-methyl-1H-pyrazolo[3,4-d]pyrimidine-4,6-diamine], the IC50 is 0.744 µM in assay [1] and 1.87 µM in assay [2].

For `COc1ccc(CNc2nc(NCC(C)(C)N)nc3c2cnn3C)cc1` [Compound 1.27, N6-(2-amino-2-methylpropyl)-N4-[(4-methoxyphenyl)methyl]-1-methyl-1H-pyrazolo[3,4-d]pyrimidine-4,6-diamine], the results for the IC50 in assay [1] and in assay [2] were 2.88 µM and 5.34 µM, respectively.

Take `Cn1ncc2c(NCc3ccc(-c4ccccc4)cc3)nc(NCC(C)(C)N)nc21` [Compound 1.28, N6-(2-amino-2-methylpropyl)-N4-({[1,1′-biphenyl]-4-yl}methyl)-1-methyl-1H-pyrazolo[3,4-d]pyrimidine-4,6-diamine]: the IC50 in assay [1] came to 1.11 µM; in assay [2] it was 0.765 µM.

For the compound `COc1ccc(CNc2nc(NCC(C)(C)N)nc3c2c(C)nn3C)cc1Cl` [Compound 1.30, N6-(2-amino-2-methylpropyl)-N4-[(3-chloro-4-methoxyphenyl)methyl]-1,3-dimethyl-1H-pyrazolo[3,4-d]pyrimidine-4,6-diamine], the IC50 in assay [1] was determined as 1.85 µM; in assay [2], 3.79 µM.

As to `Cc1nn(C)c2nc(NCC(C)(C)N)nc(NCc3ccc(-c4ccccc4)cc3)c12` [Compound 1.31, N6-(2-amino-2-methylpropyl)-N4-({[1,1′-biphenyl]-4-yl}methyl)-1,3-dimethyl-1H-pyrazolo[3,4-d]pyrimidine-4,6-diamine], the IC50 in assay [1] amounted to 0.95 µM; in assay [2], 0.814 µM.

As to `Cn1ncc2c(Nc3ccc(C(F)(F)F)cc3)nc(NCC3(N)CCCCC3)nc21` [Compound 1.32, N6-[(1-aminocyclohexyl)methyl]-1-methyl-N4-[4-(trifluoromethyl)phenyl]pyrazolo[3,4-d]pyrimidine-4,6-diamine], the IC50 was 0.0779 µM in assay [1] and 0.234 µM in assay [2].

For `Cc1nn(C)c2nc(NCC(C)(C)N)nc(Nc3cccc(C(F)(F)F)c3)c12` [Compound 1.33, N6-(2-amino-2-methylpropyl)-1,3-dimethyl-N4-[3-(trifluoromethyl)phenyl]-1H-pyrazolo[3,4-d]pyrimidine-4,6-diamine], the IC50 in assay [1] worked out at 4.33 µM; in assay [2] it was 6.46 µM.

Compound `Cn1ncc2c(NC(C)(C)C)nc(NC[C@H](N)c3ccccc3F)nc21` [Compound 7.12, N6-[(2R)-2-amino-2-(2-fluorophenyl)ethyl]-N4-tert-butyl-1-methyl-pyrazolo[3,4-d]pyrimidine-4,6-diamine] gave an IC50 in assay [2] of 2.15 µM.

`Cn1ncc2c(NC(C)(C)C)nc(NC[C@@H](N)C3CCCCC3)nc21` [Compound 7.23, N6-[(2S)-2-amino-2-cyclohexylethyl]-N4-tert-butyl-1-methyl-1H-pyrazolo[3,4-d]pyrimidine-4,6-diamine] returned an IC50 in assay [1] of 5.17 µM.
